Source: publication PMC10331583, “Control of fibrosis with enhanced safety via asymmetric inhibition of prolyl‐tRNA synthetase 1” (EMBO Molecular Medicine, 2023)
“And” between values parts separate entries of the source, which are not always exact repeats. Equal entries are not always repeated.

How the values were obtained:
[1] = system: WI‐26 VA4 cells; assay: Puromycin incorporation assay; type: cell-based, human; conditions: for activity at 0.001 µM: WI26VA4, 1 nM; for activity at 0.01 µM: WI26VA4, 10 nM; for activity at 0.03 µM: WI26VA4, 30 nM; for activity at 0.1 µM: WI26VA4, 100 nM; for activity at 1 µM: WI26VA4, 1000 nM; for activity at 3 µM: WI26VA4, 3000 nM
In short: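 WI‐26 VA4 cell lysates prepared in carbonate-bicarbonate buffer with protease inhibitor; 400 ng protein coated on ELISA plates 18 h at 4°C. Puromycin incorporated into proteins detected by antibody ELISA, absorbance 450 nm with 620 nm reference; outlier values excluded based on replicates and adjacent concentrations.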

[2] = CellTiter‐Glo assay (cytotoxicity); conditions: human, WI-26 VA4 cells, CC50 (CellTiter-Glo), 72 h (Fig 5B)
Procedure: (§1) After 24 h, the cells were incubated with various concentrations of compounds for 48 h. The level of ATP as a measure of cell viability was determined using a CellTiter‐Glo® luminescent cell viability assay kit (Promega, G7571) following the manufacturer's instructions.
(§2) WI‐26 VA4 cells were seeded at 1.2 × 10^4 cells/well in 96‐well white plates. After 24 h, the cells were incubated with the indicated concentrations of compounds for 72 h. The viability was determined as described above.

[3] = system: WI‐26 VA4 cells; assay: CellTiter‐Glo assay (cytotoxicity)
Procedure: as §1, §2

[4] = Homo sapiens, read-out: Puromycin, % of control, average
[5] = Homo sapiens, read-out: Puromycin, % of control, single replicate
[6] = log(inhibitor) vs. response, variable slope (four parameters), concentration in nM

O=C(CC1NCCCC1O)Cn1cnc2cc(Br)c(Cl)cc2c1=O (stereo not shown) [HF, Halofuginone, reference compound]
Puromycin, % of control, single replicate ([1]; 300 nM, 0.3 µM): 10.84 % of control and 35.41 % of control and 34.99 % of control and 10.87 % of control and 10.33 % of control and 31.26 % of control and 32.35 % of control and 31.90 % of control and 32.62 % of control and 32.23 % of control and 32.21 % of control
Puromycin, % of control, single replicate ([1]; 3000 nM, 3 µM): 3.08 % of control (2×) and 2.96 % of control and 3.28 % of control and 2.21 % of control and 2.18 % of control and 2.60 % of control and 2.20 % of control and 3.16 % of control and 3.05 % of control
Puromycin, % of control, single replicate ([1]; 10000 nM, 10 µM): 3.89 % of control and 1.98 % of control and 2.07 % of control and 2.17 % of control and 4.12 % of control and 4.05 % of control and 1.27 % of control and 1.14 % of control and 1.39 % of control and 2.12 % of control and 2.04 % of control
Puromycin, % of control, single replicate ([1]; 30000 nM, 30 µM): 2.04 % of control and 1.64 % of control and 1.93 % of control and 3.75 % of control and 1.32 % of control and 1.84 % of control and 1.82 % of control and 1.41 % of control
activity at 0.001 µM [1, 4]: 102%
activity at 0.001 µM [1, 5]: 101%
activity at 0.003 µM ([1]; Homo sapiens, WI26VA4, 3 nM, read-out: Puromycin, % of control, average): 98.4%
activity at 0.01 µM [1, 4]: 94.8%
activity at 0.01 µM [1, 5]: 86.6%
activity at 0.03 µM [1, 4]: 111%
activity at 0.03 µM [1, 5]: 117%
activity at 0.1 µM [1, 4]: 88%
activity at 0.1 µM [1, 5]: 94.6%
activity at 0.3 µM ([1]; Homo sapiens, WI26VA4, 300 nM, read-out: Puromycin, % of control, average): 26.8%
activity at 1 µM [1, 4]: 3.03%
activity at 1 µM [1, 5]: 2.13%
activity at 3 µM [1, 4]: 2.66%
activity at 3 µM [1, 5]: 2.13%
activity at 10 µM ([1]; Homo sapiens, WI26VA4, 10000 nM, read-out: Puromycin, % of control, average): 2.36%
activity at 30 µM ([1]; Homo sapiens, WI26VA4, 30000 nM, read-out: Puromycin, % of control, average): 1.87%
IC50 ([1]; Homo sapiens, WI26VA4, log(inhibitor) vs. response, variable slope (four parameters), read-out: Puromycin, IC50 (best-fit value)): 0.2 µM
Puromycin, HillSlope (best-fit value) ([1]; log(inhibitor) vs. response, variable slope (four parameters)): -2.795
Puromycin, LogIC50 (best-fit value) [1, 6]: 2.301
CC50 at 72 h [2]: 0.051 µM
activity at 0.001 µM ([3]; Homo sapiens, WI26VA4, read-out: CellTiter-Glo % of control, 1 nM, Experiment #1, replicates): 106%
activity at 0.01 µM ([3]; Homo sapiens, WI26VA4, read-out: CellTiter-Glo % of control, 10 nM, Experiment #1, replicates): 99.6%
activity at 0.01 µM ([3]; Homo sapiens, WI26VA4, read-out: CellTiter-Glo % of control, 10 nM, Experiment #2, replicates): 85.1%
activity at 0.03 µM ([3]; Homo sapiens, WI26VA4, read-out: CellTiter-Glo % of control, 30 nM, Experiment #2, replicates): 74.1%
activity at 0.1 µM ([3]; Homo sapiens, WI26VA4, read-out: CellTiter-Glo % of control, 100 nM, Experiment #1, replicates): 35.7%
activity at 0.1 µM ([3]; Homo sapiens, WI26VA4, read-out: CellTiter-Glo % of control, 100 nM, Experiment #2, replicates): 30%
activity at 0.3 µM ([3]; Homo sapiens, WI26VA4, read-out: CellTiter-Glo % of control, 300 nM, Experiment #2, replicates): 17.6%
activity at 1 µM ([3]; Homo sapiens, WI26VA4, read-out: CellTiter-Glo % of control, 1000 nM, Experiment #1, replicates): 17.1%
activity at 1 µM ([3]; Homo sapiens, WI26VA4, read-out: CellTiter-Glo % of control, 1000 nM, Experiment #2, replicates): 29.9%
activity at 3 µM ([3]; Homo sapiens, WI26VA4, read-out: CellTiter-Glo % of control, 3000 nM, Experiment #2, replicates): 11%
activity at 10 µM ([3]; Homo sapiens, WI26VA4, read-out: CellTiter-Glo % of control, 10000 nM, Experiment #1, replicates): 1.85%
activity at 10 µM ([3]; Homo sapiens, WI26VA4, read-out: CellTiter-Glo % of control, 10000 nM, Experiment #2, replicates): 4.64%
activity at 30 µM ([3]; Homo sapiens, WI26VA4, read-out: CellTiter-Glo % of control, 30000 nM, Experiment #2, replicates): 1.49%
activity at 0.0003 µM ([3]; Homo sapiens, WI26VA4, read-out: CellTiter-Glo % of control, average, 0.3 nM, average): 103%
activity at 0.001 µM ([3]; Homo sapiens, WI26VA4, read-out: CellTiter-Glo % of control, average, 1 nM, average): 102%
activity at 0.01 µM ([3]; Homo sapiens, WI26VA4, read-out: CellTiter-Glo % of control, average, 10 nM, average): 92.4%
activity at 0.03 µM ([3]; Homo sapiens, WI26VA4, read-out: CellTiter-Glo % of control, average, 30 nM, average): 77.3%
activity at 0.1 µM ([3]; Homo sapiens, WI26VA4, read-out: CellTiter-Glo % of control, average, 100 nM, average): 30.6%
activity at 0.3 µM ([3]; Homo sapiens, WI26VA4, read-out: CellTiter-Glo % of control, average, 300 nM, average): 18.1%
activity at 1 µM ([3]; Homo sapiens, WI26VA4, read-out: CellTiter-Glo % of control, average, 1000 nM, average): 23.7%
activity at 3 µM ([3]; Homo sapiens, WI26VA4, read-out: CellTiter-Glo % of control, average, 3000 nM, average): 10.2%
activity at 10 µM ([3]; Homo sapiens, WI26VA4, read-out: CellTiter-Glo % of control, average, 10000 nM, average): 3.39%
activity at 30 µM ([3]; Homo sapiens, WI26VA4, read-out: CellTiter-Glo % of control, average, 30000 nM, average): 1.53%
activity at 100 µM ([3]; Homo sapiens, WI26VA4, read-out: CellTiter-Glo % of control, average, 100000 nM, average): 0.00424%
CellTiter-Glo LogIC50 (best-fit value) [3, 6]: 1.708
